Measurements as given in patent US20100298141A1, “SUBSTITUTED PYRIDINE N-OXIDE HERBICIDES” (E. I. DU PONT DE NEMOURS AND COMPANY, priority 2007, published 2010).

Tests used:
soybean = experiment: Test C pre-/postemergence test; assay type: in vivo, Glycine max
In short: (§1)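 Compounds in a non-phytotoxic solvent with surfactant applied preemergence to seeded pots and, at the same time, postemergence to plants 2–18 cm tall (1- to 4-leaf stage). Paddy tests: pots flooded to 3 cm, compound applied into the water, depth held throughout.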

Italian ryegrass = experiment: Test C pre-/postemergence test; assay type: in vivo, Lolium multiflorum
In short: as §1

green foxtail = experiment: Test C pre-/postemergence test; assay type: in vivo, Setaria viridis
In short: as §1

velvetleaf = experiment: Test A pre-/postemergence greenhouse test; assay type: in vivo, Abutilon theophrasti; details: for Plant response rating, Velvetleaf: 0 to 100 scale where 0 is no effect and 100 is complete control; for Velvetleaf plant response rating: 0 to 100 scale
In short: (§2)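 Greenhouse herbicide screen, pre- and postemergence in parallel. Soil: loam plus sand. Formulation: non-phytotoxic solvent mix with surfactant. Postemergence stage: one to two leaves, 2–10 cm height. Evaluation: visual injury, compared with untreated controls, about 10 days after treatment.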

pigweed = experiment: Test C pre-/postemergence test; assay type: in vivo, Amaranthus retroflexus
In short: as §1

corn [1] = experiment: Test A pre-/postemergence greenhouse test; assay type: in vivo, Zea mays; details: for Plant response rating, Corn: 0 to 100 scale where 0 is no effect and 100 is complete control; for Corn plant response rating: 0 to 100 scale
In short: as §2

umbrella sedge = experiment: Test C flooded paddy test; assay type: in vivo, Cyperus difformis; details: Flood
In short: (§3)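 Pots were flooded to 3 cm above the soil surface at treatment, compound applied directly to the paddy water, and that depth held throughout. Plants were kept in a greenhouse for 13 to 15 days, then visually rated against untreated controls.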

barnyardgrass [2] = experiment: Test A pre-/postemergence greenhouse test; assay type: in vivo, Echinochloa crus-galli; details: for Plant response rating, Barnyardgrass: 0 to 100 scale where 0 is no effect and 100 is complete control; for Barnyardgrass plant response rating: 0 to 100 scale
In short: as §2

johnsongrass = experiment: Test C pre-/postemergence test; assay type: in vivo, Sorghum halepense
In short: as §1

bermudagrass = experiment: Test C pre-/postemergence test; assay type: in vivo, Cynodon dactylon
In short: as §1

crabgrass [3] = experiment: Test A pre-/postemergence greenhouse test; assay type: in vivo, Digitaria sanguinalis; details: for Plant response rating, Crabgrass, Large: 0 to 100 scale where 0 is no effect and 100 is complete control; for Crabgrass, Large plant response rating: 0 to 100 scale
In short: as §2

crabgrass [4] = experiment: Test C pre-/postemergence test; assay type: in vivo, Digitaria sanguinalis
In short: as §1

barnyardgrass [5] = experiment: Test C flooded paddy test; assay type: in vivo, Echinochloa crus-galli; details: Flood
In short: as §3

duck salad = experiment: Test C flooded paddy test; assay type: in vivo, Heteranthera limosa; details: Flood
In short: as §3

corn [6] = experiment: Test C pre-/postemergence test; assay type: in vivo, Zea mays
In short: as §1

Goosegrass = experiment: Test C pre-/postemergence test; assay type: in vivo, Eleusin indica
In short: as §1

yellow nutsedge = experiment: Test C pre-/postemergence test; assay type: in vivo, Cyperus esculentus
In short: as §1

[7] = 62 g ai/ha, Preemergence, scale 0 to 100
[8] = 125 g ai/ha, preemergence, scale 0 (no effect) to 100 (complete control)
[9] = preemergence, 250 g ai/ha, scale 0 (no effect) to 100 (complete control)
[10] = Preemergence, 31 g ai/ha, scale 0 to 100 (0 no effect, 100 complete control)
[11] = Postemergence, 500 g ai/ha, 0 is no effect, 100 is complete control
[12] = Preemergence, 125 g ai/ha, 0 no effect, 100 complete control
[13] = 62 g ai/ha, scale 0 to 100 (0 no effect, 100 complete control)
[14] = 250 g ai/ha, scale 0 to 100, 0 no effect, 100 complete control, 13 to 15 days

Cc1cc([S+]([O-])Cc2c(C(F)(F)F)nn(C)c2OCC(F)(F)F)[n+]([O-])cc1Cl (stereo not shown) [Compound 70]
Soybean plant response rating (soybean; [7]): 30
Soybean plant response rating (soybean; [8]): 80
Soybean plant response rating (soybean; [9]): 85
Ryegrass, Italian plant response rating (Italian ryegrass; [7]): 85
Ryegrass, Italian plant response rating (Italian ryegrass; [8]): 100
Plant response rating, Ryegrass, Italian (Italian ryegrass; [10]): 85
Ryegrass, Italian plant response rating (Italian ryegrass; [9]): 100
Foxtail, Green plant response rating (green foxtail; [7]): 100
Foxtail, Green plant response rating (green foxtail; [8]): 100
Plant response rating, Foxtail, Green (green foxtail; [10]): 100
Foxtail, Green plant response rating (green foxtail; [9]): 100
Plant response rating, Velvetleaf (velvetleaf; Postemergence, 125 g ai/ha): 60
Velvetleaf plant response rating (velvetleaf; [11]): 70
Velvetleaf plant response rating (velvetleaf; [12]): 40
Plant response rating, Velvetleaf (velvetleaf; Preemergence, 500 g ai/ha): 100
Pigweed plant response rating (pigweed; [7]): 100
Pigweed plant response rating (pigweed; [8]): 100
Plant response rating, Pigweed (pigweed; [10]): 100
Pigweed plant response rating (pigweed; [9]): 100
Plant response rating, Corn (corn [1]; Postemergence, 125 g ai/ha): 50
Corn plant response rating (corn [1]; [11]): 80
Corn plant response rating (corn [1]; [12]): 20
Plant response rating, Corn (corn [1]; Preemergence, 500 g ai/ha): 90
Plant response rating, Sedge, Umbrella (umbrella sedge; [13]): 80
Plant response rating, Sedge, Umbrella (umbrella sedge; [14]): 100
Plant response rating, Barnyardgrass (barnyardgrass [2]; Postemergence, 125 g ai/ha): 70
Barnyardgrass plant response rating (barnyardgrass [2]; [11]): 90
Barnyardgrass plant response rating (barnyardgrass [2]; [12]): 80
Plant response rating, Barnyardgrass (barnyardgrass [2]; Preemergence, 500 g ai/ha): 100
Johnsongrass plant response rating (johnsongrass; [7]): 100
Johnsongrass plant response rating (johnsongrass; [8]): 100
Plant response rating, Johnsongrass (johnsongrass; [10]): 70
Johnsongrass plant response rating (johnsongrass; [9]): 100
Bermudagrass plant response rating (bermudagrass; 62 g ai/ha, Preemergence, scale 0 to 100 (0 no effect, 100 complete control)): 100
Bermudagrass plant response rating (bermudagrass; [8]): 100
Plant response rating, Bermudagrass (bermudagrass; [10]): 100
Bermudagrass plant response rating (bermudagrass; [9]): 100
Plant response rating, Crabgrass, Large (crabgrass [3]; Postemergence, 125 g ai/ha): 50
Crabgrass, Large plant response rating (crabgrass [3]; [11]): 80
Crabgrass, Large plant response rating (crabgrass [3]; [12]): 90
Plant response rating, Crabgrass, Large (crabgrass [3]; Preemergence, 500 g ai/ha): 100
Crabgrass, Large plant response rating (crabgrass [4]; [7]): 100
Crabgrass, Large plant response rating (crabgrass [4]; [8]): 100
Plant response rating, Crabgrass, Large (crabgrass [4]; [10]): 85
Crabgrass, Large plant response rating (crabgrass [4]; [9]): 100
Plant response rating, Barnyardgrass (barnyardgrass [5]; [13]): 0
Plant response rating, Barnyardgrass (barnyardgrass [5]; [14]): 95
Plant response rating, Ducksalad (duck salad; [13]): 85
Plant response rating, Ducksalad (duck salad; [14]): 100
Corn plant response rating (corn [6]; [7]): 95
Corn plant response rating (corn [6]; [8]): 98
Plant response rating, Corn (corn [6]; [10]): 50
Corn plant response rating (corn [6]; [9]): 100
Goosegrass plant response rating (Goosegrass; [7]): 100
Goosegrass plant response rating (Goosegrass; [8]): 100
Plant response rating, Goosegrass (Goosegrass; [10]): 100
Goosegrass plant response rating (Goosegrass; [9]): 100
Nutsedge, Yellow plant response rating (yellow nutsedge; [7]): 65
Nutsedge, Yellow plant response rating (yellow nutsedge; [8]): 65
Plant response rating, Nutsedge, Yellow (yellow nutsedge; [10]): 60
Nutsedge, Yellow plant response rating (yellow nutsedge; [9]): 95
